Here are results for two molecules from ChEMBL document CHEMBL1201862, “PubChem BioAssay data set” (2004).

Molecules are shown by their SMILES. Activity calls are given as the source filed them.

In one assay the target is Genome polyprotein (dengue virus type 2, UniProt P29990). Briefly: Dengue-2 NS5 methyltransferase inhibitors, primary screen, biochemical, confirmation dose response (AID 588689). In kind it is functional.
For a further assay, the system named is Vero. Briefly: Vero cell cytotoxicity, cytotoxicity control for flavivirus capping enzyme inhibitors (AID 588742). In kind it is functional. Conditions: Chlorocebus sabaeus.
Assay [1] addresses ATP-binding cassette sub-family B member 6 (Homo sapiens, UniProt Q9NP58). Briefly: ABCB6 transporter inhibitors, porphyrin accumulation, dose response, flow cytometry, K562-ABCB6 cells, cherry pick 02 (AID 624487). In kind it is functional. Particulars: read-out: EC50_MICROM. For orientation: In flow cytometry, cells or beads pass a laser one at a time.
Assay [2] in a line: HepG2 cell cytotoxicity, dose response, cytotoxicity control for Shn3 inhibitor project, CellTiter-Glo, cherry-picked (AID 624134). In kind it is functional, cell-based. On the technique in general: Cellular ATP, detected with luciferase, serves as a proxy for viable cell number.
Assay [3] addresses T1, Replicative DNA helicase DnaB (Mycobacterium tuberculosis, UniProt P9WMR3).
T1 sequence (P9WMR3 whole entry): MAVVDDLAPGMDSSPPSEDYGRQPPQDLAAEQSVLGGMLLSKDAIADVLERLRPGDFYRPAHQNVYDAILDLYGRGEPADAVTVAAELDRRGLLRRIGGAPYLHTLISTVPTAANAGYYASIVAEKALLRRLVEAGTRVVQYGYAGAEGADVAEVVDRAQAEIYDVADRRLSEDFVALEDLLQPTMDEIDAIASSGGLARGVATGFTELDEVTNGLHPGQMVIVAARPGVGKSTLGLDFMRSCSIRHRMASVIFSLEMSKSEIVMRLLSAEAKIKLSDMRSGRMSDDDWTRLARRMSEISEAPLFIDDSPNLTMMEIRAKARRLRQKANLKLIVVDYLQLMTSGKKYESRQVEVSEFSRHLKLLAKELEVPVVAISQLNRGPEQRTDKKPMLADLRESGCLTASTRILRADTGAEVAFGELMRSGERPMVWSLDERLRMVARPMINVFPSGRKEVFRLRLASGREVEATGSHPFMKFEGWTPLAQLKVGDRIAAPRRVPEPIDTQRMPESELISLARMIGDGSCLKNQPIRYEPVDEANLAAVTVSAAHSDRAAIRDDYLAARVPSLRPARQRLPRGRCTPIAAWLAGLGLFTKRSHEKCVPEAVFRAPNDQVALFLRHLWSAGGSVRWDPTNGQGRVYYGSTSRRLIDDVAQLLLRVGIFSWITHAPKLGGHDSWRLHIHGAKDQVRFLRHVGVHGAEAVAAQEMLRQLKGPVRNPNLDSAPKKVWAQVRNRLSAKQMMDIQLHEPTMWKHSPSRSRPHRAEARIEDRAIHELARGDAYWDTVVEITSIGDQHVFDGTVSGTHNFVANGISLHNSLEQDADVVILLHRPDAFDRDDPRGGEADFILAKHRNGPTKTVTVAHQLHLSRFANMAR
Put plainly: DnaB intein splicing inhibitors, dose response, biochemical, cell-free fluorescence (AID 449749). In kind it is functional.

Another assay deals with T2, Protein RecA (Mycobacterium tuberculosis, UniProt P9WHJ3).
T2 sequence (P9WHJ3 whole entry): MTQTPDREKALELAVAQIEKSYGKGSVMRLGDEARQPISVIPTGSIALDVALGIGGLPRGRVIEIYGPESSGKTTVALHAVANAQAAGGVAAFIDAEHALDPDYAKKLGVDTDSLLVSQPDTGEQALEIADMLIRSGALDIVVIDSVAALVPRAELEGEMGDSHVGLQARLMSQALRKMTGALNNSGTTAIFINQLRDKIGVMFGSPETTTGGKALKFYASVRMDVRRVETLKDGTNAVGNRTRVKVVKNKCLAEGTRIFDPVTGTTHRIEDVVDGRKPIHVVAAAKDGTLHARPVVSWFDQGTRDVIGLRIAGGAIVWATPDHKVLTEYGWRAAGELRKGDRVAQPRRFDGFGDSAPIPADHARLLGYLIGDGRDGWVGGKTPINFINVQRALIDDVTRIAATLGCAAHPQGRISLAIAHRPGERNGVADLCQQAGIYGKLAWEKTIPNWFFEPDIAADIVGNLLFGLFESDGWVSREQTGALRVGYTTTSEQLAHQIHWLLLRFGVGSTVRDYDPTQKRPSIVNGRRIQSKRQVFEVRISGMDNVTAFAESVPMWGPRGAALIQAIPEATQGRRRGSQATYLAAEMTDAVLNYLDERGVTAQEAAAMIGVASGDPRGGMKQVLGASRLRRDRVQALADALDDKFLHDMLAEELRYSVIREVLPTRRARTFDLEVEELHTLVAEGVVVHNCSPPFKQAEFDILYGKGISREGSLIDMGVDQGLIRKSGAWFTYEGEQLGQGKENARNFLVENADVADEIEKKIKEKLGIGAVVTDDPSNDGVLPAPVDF
Put plainly: Fluorescence Cell-Free Homogeneous Dose Retest to Identify Inhibitors of RecA-Intein Splicing Activity. [Related pubchem assays (depositor defined):AID2097, AID2223, AID489010, AID492950]. In kind it is functional.

The nature of assay [4]: control 3'UTR Renilla luciferase suppression, dose response, counter-screen for Shn3 inhibitor project, cell-based, Clone20-Shn3RL, cherry-picked (AID 624133). In kind it is functional. Background: Counterscreens check selectivity or assay interference.
For assay [5], the target named is T3, High affinity choline transporter 1 (Homo sapiens, UniProt Q9GZV3).
T3 sequence (Q9GZV3 whole entry): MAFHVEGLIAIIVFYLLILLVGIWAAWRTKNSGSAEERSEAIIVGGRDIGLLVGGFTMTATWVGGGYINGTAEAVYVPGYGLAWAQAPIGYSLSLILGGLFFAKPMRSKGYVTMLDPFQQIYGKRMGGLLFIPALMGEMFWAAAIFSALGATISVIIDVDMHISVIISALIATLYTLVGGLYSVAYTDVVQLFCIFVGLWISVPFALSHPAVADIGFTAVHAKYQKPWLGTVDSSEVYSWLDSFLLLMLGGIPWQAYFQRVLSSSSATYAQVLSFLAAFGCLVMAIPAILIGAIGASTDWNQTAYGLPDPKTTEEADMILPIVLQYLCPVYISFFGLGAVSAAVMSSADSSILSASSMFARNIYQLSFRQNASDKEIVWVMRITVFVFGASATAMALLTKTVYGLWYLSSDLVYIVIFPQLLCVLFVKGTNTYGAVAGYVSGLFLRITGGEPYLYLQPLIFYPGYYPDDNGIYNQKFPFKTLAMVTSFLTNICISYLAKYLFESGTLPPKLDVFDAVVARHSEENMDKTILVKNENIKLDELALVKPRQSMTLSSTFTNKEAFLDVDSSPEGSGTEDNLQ
Put plainly: CHT inhibitors, dose response, cell-based, 10-point CRC, membrane potential dye (AID 588401).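 Note: membrane potential dye fluorescence of choline-evoked depolarization via CHT.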 In kind it is functional.

Assay [6] concerns the target Potassium voltage-gated channel subfamily KQT member 2 (Rattus norvegicus, UniProt O88943, W236L). Briefly: KCNQ2 channel potentiators, dose response, mechanism study for KCNQ2 potentiator project, cell-based, automated electrophysiology (AID 2603). In kind it is functional.
In assay [7] the target is T3, High affinity choline transporter 1. Briefly: CHT inhibitors, dose response, cell-based, 5-point CRC, membrane potential dye (AID 504840). In kind it is functional.
The nature of assay [8]: Shn3 3'UTR reporter inhibitors, dose response, cell-based, Clone20 osteoblasts, firefly luciferase, cherry-picked (AID 624132).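 Note: firefly luciferase luminescence from reporter carrying the Shn3 3'UTR in osteoblasts.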 In kind it is functional.
In assay [9] the target is T4, Carboxy-terminal domain RNA polymerase II polypeptide A small phosphatase 1 (Homo sapiens, UniProt Q9GZU7).
T4 sequence (Q9GZU7 whole entry): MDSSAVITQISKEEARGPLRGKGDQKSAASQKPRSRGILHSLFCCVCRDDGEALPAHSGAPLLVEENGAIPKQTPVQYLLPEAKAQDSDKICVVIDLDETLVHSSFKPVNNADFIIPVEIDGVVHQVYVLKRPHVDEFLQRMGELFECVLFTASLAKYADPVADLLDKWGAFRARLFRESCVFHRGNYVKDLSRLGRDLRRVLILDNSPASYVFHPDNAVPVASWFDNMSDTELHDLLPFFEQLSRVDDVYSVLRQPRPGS
Put plainly: inhibitors of CTDSP1, concentration-response testing, biochemical assay, absorbance-based, actives from ultra-high-throughput screening (AID 540297). In kind it is functional.

The next assay deals with T5, Estrogen receptor (Homo sapiens, UniProt P03372).
T5 sequence (P03372 whole entry): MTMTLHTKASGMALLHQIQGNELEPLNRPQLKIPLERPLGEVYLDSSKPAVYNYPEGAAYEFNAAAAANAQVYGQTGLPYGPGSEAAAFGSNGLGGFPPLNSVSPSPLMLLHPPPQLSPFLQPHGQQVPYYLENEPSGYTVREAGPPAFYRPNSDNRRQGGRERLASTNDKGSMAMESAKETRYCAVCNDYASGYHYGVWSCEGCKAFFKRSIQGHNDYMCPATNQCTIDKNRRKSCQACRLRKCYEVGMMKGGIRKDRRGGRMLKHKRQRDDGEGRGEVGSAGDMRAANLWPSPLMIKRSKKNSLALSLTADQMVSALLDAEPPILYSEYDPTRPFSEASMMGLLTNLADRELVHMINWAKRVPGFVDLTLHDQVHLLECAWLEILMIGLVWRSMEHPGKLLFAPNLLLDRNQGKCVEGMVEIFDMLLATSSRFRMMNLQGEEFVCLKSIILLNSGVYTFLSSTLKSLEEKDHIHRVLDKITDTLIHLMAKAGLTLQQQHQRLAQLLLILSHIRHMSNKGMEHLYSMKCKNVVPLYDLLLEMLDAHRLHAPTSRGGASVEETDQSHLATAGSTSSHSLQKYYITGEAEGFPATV

ATP-binding cassette sub-family B member 6, sequence (Q9NP58 whole entry): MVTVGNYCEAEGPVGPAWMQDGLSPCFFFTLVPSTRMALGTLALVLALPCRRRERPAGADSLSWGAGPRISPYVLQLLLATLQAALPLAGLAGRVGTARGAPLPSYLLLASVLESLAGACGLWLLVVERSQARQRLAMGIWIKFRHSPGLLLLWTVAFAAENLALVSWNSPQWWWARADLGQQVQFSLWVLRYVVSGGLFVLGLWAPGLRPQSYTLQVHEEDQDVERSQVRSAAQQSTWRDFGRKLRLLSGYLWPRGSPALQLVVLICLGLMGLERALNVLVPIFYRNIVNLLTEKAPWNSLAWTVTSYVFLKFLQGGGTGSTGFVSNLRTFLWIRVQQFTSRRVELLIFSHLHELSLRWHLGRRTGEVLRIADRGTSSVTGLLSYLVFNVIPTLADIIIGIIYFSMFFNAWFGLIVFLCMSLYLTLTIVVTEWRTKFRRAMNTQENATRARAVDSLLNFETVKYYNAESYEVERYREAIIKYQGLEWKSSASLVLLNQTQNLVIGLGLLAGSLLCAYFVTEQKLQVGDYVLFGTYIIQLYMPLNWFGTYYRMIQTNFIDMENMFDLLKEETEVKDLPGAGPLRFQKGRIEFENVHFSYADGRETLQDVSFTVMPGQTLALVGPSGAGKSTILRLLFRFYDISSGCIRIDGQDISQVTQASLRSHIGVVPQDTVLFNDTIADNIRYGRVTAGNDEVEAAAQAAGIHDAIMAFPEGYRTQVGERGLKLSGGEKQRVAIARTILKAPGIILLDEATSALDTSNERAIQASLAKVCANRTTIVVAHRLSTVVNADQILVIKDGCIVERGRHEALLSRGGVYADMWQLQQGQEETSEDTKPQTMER
Genome polyprotein, sequence (P29990 2492-3391 limits assumed): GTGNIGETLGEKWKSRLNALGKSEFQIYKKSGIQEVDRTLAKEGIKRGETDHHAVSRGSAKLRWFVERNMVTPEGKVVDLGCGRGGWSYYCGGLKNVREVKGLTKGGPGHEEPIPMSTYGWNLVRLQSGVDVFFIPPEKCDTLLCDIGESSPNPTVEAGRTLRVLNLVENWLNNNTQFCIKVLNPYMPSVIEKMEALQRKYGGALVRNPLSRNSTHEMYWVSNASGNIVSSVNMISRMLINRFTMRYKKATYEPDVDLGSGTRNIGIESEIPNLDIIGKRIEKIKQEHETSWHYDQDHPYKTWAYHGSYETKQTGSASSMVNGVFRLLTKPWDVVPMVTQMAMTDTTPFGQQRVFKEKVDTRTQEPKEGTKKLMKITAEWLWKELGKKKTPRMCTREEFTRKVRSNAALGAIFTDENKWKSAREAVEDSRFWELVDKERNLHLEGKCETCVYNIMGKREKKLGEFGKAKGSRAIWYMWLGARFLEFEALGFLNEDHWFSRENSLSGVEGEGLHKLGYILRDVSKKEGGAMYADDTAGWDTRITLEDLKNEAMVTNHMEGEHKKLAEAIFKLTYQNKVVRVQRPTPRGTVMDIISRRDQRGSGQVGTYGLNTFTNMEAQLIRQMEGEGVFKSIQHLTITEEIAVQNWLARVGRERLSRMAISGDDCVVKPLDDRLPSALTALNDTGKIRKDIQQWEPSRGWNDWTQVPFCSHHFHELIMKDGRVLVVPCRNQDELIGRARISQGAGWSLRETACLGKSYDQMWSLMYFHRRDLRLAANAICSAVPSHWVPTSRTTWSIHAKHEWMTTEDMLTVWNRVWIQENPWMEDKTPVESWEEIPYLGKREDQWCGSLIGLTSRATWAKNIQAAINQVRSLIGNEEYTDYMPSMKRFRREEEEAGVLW
Potassium voltage-gated channel subfamily KQT member 2, sequence (O88943 whole entry W236L): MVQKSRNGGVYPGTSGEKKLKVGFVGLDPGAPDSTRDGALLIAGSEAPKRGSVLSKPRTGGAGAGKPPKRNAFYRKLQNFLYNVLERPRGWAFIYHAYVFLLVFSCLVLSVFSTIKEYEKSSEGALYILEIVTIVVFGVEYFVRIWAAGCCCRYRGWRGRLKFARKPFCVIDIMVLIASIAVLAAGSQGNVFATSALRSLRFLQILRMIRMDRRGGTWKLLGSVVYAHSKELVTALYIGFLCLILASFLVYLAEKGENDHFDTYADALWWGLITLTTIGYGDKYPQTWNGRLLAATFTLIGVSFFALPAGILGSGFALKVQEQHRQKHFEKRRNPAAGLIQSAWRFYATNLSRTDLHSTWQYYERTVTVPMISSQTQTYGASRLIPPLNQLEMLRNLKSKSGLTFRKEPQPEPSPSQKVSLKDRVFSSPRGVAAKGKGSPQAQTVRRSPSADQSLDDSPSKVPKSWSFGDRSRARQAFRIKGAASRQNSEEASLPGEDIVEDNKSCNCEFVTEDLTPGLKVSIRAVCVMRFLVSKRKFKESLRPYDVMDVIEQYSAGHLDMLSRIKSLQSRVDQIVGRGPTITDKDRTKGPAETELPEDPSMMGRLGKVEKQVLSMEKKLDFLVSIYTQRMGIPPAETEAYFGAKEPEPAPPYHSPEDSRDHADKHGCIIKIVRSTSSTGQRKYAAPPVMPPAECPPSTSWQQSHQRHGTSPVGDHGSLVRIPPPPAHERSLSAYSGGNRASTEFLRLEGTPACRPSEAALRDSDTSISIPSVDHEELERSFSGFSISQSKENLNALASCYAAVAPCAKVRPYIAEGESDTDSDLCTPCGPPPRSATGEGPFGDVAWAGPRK

On to `CCc1nnc(NC(=O)c2nc(S(=O)(=O)Cc3ccc(C)cc3)ncc2Cl)s1`, for which the values for the IC50 (at Genome polyprotein; in assay [5]; in [7]) were > 100 µM (active), 3.11 µM (active) and 3.31 µM (active), respectively. In the assay on Vero, the CC50 was 28.9 µM (active). For the same molecule, the values for the EC50 (in assay [1]; on Protein RecA; in assay [6]) were 29.5 µM (active), 4.11 µM (active) and 4.8 µM (active), respectively. In addition, the AC50 is > 70 µM (inactive) in assay [2], 5.97 µM (active) in assay [3], 6.18 µM (active) in assay [4] and 3.01 µM (active) in [8].
Regarding `CCCN(CCC)S(=O)(=O)c1ccc(NC(=O)Cc2cccs2)cc1`, the figures for the IC50 (in assay [9]; at Estrogen receptor) were 9.83 µM (active) and 16.7 µM (active), respectively.

By IC50 is commonly meant the concentration needed to halve the response being measured. In general, CC50 refers to the concentration that lowers cell viability or growth by half. One may read the AC50 as the midpoint of the concentration-response curve, whichever way the signal moves.
